The source made the active and inactive calls. No cut-off for these calls is given here.

The first data set relates to C6. The data set is described as follows: Antiproliferative activity against rat C6 cells at 0.1 to 10 uM after 48 hrs by neutral red incorporation assay. The data set is classed as functional, cell-based.
Settings: not given
As to `O=NN(CCCl)C(=O)NCCCl` [CARMUSTINE], the outcome was Active.

Tested on in another data set: not listed separately
Description: Cytotoxicity against mouse astrocytes assessed as decrease in cell viability at 1 to 100 uM after 48 hrs by Hoechst 33342 staining. The data set is classed as cell-based. As to conditions: astrocyte.
In the case of `O=NN(CCCl)C(=O)NCCCl` [CARMUSTINE], the Activity entry was “Non-toxic”.

The next data set concerns C6. Description: Antiproliferative activity against rat C6 cells after 48 hrs by MTT assay. As to conditions: C6, 48 h. The class given is functional, cell-based. On the technique in general: Tetrazolium dyes change colour on reduction, which living cells bring about.
As usually defined, the EC50 is the midpoint of the concentration-response curve. `O=[P@@]1(c2cccc(C(F)(F)F)c2)O[C@H](COCc2ccccc2)[C@@H](OCc2ccccc2)[C@H](OCc2ccccc2)[C@@H]1O` gave an EC50 greater than 25 µM.

Compound `O=[P@]1(c2ccccc2)C[C@@H](OCc2ccccc2)[C@H](OCc2ccccc2)[C@@H](COCc2ccccc2)O1` registered an EC50 of 8.3 µM.

As to `O=[P@]1(c2cccc(C(F)(F)F)c2)O[C@H](COCc2ccccc2)[C@@H](OCc2ccccc2)[C@H](OCc2ccccc2)[C@@H]1O`, the EC50 is greater than 25 µM.

`O=[P@]1(c2ccccc2)O[C@H](COCc2ccccc2)[C@@H](OCc2ccccc2)[C@H](OCc2ccccc2)[C@@H]1O` (single isomer, unassigned) had an EC50 of 12 µM.

On to `[N-]=[N+]=N[C@H]1[C@@H](OCc2ccccc2)[C@H](OCc2ccccc2)[C@@H](COCc2ccccc2)O[P@@]1(=O)c1ccccc1`, for which the EC50 was greater than 25 µM.

In the case of `Cc1cccc([P@]2(=O)O[C@H](COCc3ccccc3)[C@@H](OCc3ccccc3)[C@H](OCc3ccccc3)[C@@H]2O)c1`, the EC50 was greater than 25 µM.

`Cc1cccc([P@@]2(=O)O[C@H](COCc3ccccc3)[C@@H](OCc3ccccc3)[C@H](OCc3ccccc3)[C@H]2O)c1`: the EC50 was greater than 25 µM.

The compound `N[C@H]1[C@@H](OCc2ccccc2)[C@H](OCc2ccccc2)[C@@H](COCc2ccccc2)O[P@@]1(=O)c1ccccc1` had an EC50 of 18.7 µM.

`O=[P@]1(c2cccc(C(F)(F)F)c2)O[C@H](COCc2ccccc2)[C@@H](OCc2ccccc2)[C@H](OCc2ccccc2)[C@H]1O`: the EC50 is greater than 25 µM.

Compound `Cc1ccc([P@]2(=O)O[C@H](COCc3ccccc3)[C@@H](OCc3ccccc3)[C@H](OCc3ccccc3)[C@@H]2O)cc1` had an EC50 greater than 25 µM.

For `O=C(O[C@@H]1[C@@H](OCc2ccccc2)[C@H](OCc2ccccc2)[C@@H](COCc2ccccc2)O[P@@]1(=O)c1ccccc1)C(F)(F)F`, the EC50 was greater than 25 µM.

For the compound `COc1cccc([P@]2(=O)O[C@H](COCc3ccccc3)[C@@H](OCc3ccccc3)[C@H](OCc3ccccc3)[C@@H]2O)c1`, the EC50 is greater than 25 µM.

In the case of `COc1cccc([P@]2(=O)O[C@H](COCc3ccccc3)[C@@H](OCc3ccccc3)[C@H](OCc3ccccc3)[C@H]2O)c1`, the EC50 is greater than 25 µM.

The compound `CO[C@@H]1[C@@H](OCc2ccccc2)[C@H](OCc2ccccc2)[C@@H](COCc2ccccc2)O[P@@]1(=O)c1ccccc1` registered an EC50 of 16.6 µM.

`Cc1cccc([P@@]2(=O)O[C@H](COCc3ccccc3)[C@@H](OCc3ccccc3)[C@H](OCc3ccccc3)[C@@H]2O)c1` registered an EC50 greater than 25 µM.

Turning to `COc1ccc([P@]2(=O)O[C@H](COCc3ccccc3)[C@@H](OCc3ccccc3)[C@H](OCc3ccccc3)[C@@H]2O)cc1`, a half-maximal response (EC50) required 2.9 µM.

In turn, `[N-]=[N+]=N[C@@H]1[C@@H](OCc2ccccc2)[C@H](OCc2ccccc2)[C@@H](COCc2ccccc2)O[P@@]1(=O)c1ccccc1` came in with an EC50 of 16.7 µM.

The compound `CSC(=S)O[C@@H]1[C@@H](OCc2ccccc2)[C@H](OCc2ccccc2)[C@@H](COCc2ccccc2)O[P@@]1(=O)c1ccccc1` yielded an EC50 of 14 µM.

For `O=[P@@]1(c2ccccc2)O[C@H](COCc2ccccc2)[C@@H](OCc2ccccc2)[C@H](OCc2ccccc2)[C@H]1OCc1ccccc1`, the midpoint of the response, the EC50, lay at 5.3 µM.

As to `O=[P@]1(c2ccccc2)O[C@H](COCc2ccccc2)[C@@H](OCc2ccccc2)[C@H](OCc2ccccc2)[C@H]1O`, a half-maximal response (EC50) required 12 µM.

As for `Cc1ccc([P@@]2(=O)O[C@H](COCc3ccccc3)[C@@H](OCc3ccccc3)[C@H](OCc3ccccc3)[C@H]2O)cc1`, the EC50 is greater than 25 µM.

In turn, `O=[P@@]1(c2ccccc2)O[C@H](COCc2ccccc2)[C@@H](OCc2ccccc2)[C@H](OCc2ccccc2)[C@H]1NCc1ccccc1` came in with an EC50 of 2.68 µM.

Regarding `COc1cccc([P@@]2(=O)O[C@H](COCc3ccccc3)[C@@H](OCc3ccccc3)[C@H](OCc3ccccc3)[C@H]2O)c1`, the EC50 is greater than 25 µM.

In turn, `O=[P@@]1(c2cccc(F)c2)O[C@H](COCc2ccccc2)[C@@H](OCc2ccccc2)[C@H](OCc2ccccc2)[C@H]1O` registered an EC50 greater than 25 µM.

`COc1ccc([P@@]2(=O)O[C@H](COCc3ccccc3)[C@@H](OCc3ccccc3)[C@H](OCc3ccccc3)[C@@H]2O)cc1` gave an EC50 of 15 µM.

Regarding `O=C(O[C@@H]1[C@@H](OCc2ccccc2)[C@H](OCc2ccccc2)[C@@H](COCc2ccccc2)O[P@@]1(=O)c1ccccc1)c1ccccc1`, the EC50 is greater than 25 µM.

`COc1cccc([P@@]2(=O)O[C@H](COCc3ccccc3)[C@@H](OCc3ccccc3)[C@H](OCc3ccccc3)[C@@H]2O)c1` came in with an EC50 greater than 25 µM.

Compound `O=[P@]1(c2cccc(F)c2)O[C@H](COCc2ccccc2)[C@@H](OCc2ccccc2)[C@H](OCc2ccccc2)[C@@H]1O` had a concentration for a half-maximal effect (EC50) greater than 25 µM.

For `Cc1cccc([P@]2(=O)O[C@H](COCc3ccccc3)[C@@H](OCc3ccccc3)[C@H](OCc3ccccc3)[C@H]2O)c1`, the EC50 was greater than 25 µM.

`O=C(Nc1ccccc1)N[C@@H]1[C@@H](OCc2ccccc2)[C@H](OCc2ccccc2)[C@@H](COCc2ccccc2)O[P@@]1(=O)c1ccccc1` showed an EC50 of 4.4 µM.

The compound `Cc1ccc([P@]2(=O)O[C@H](COCc3ccccc3)[C@@H](OCc3ccccc3)[C@H](OCc3ccccc3)[C@H]2O)cc1` yielded an EC50 greater than 25 µM.

`C=CCN[C@@H]1[C@@H](OCc2ccccc2)[C@H](OCc2ccccc2)[C@@H](COCc2ccccc2)O[P@@]1(=O)c1ccccc1` had an EC50 of 0.49 µM.

On to `COc1ccc([P@]2(=O)O[C@H](COCc3ccccc3)[C@@H](OCc3ccccc3)[C@H](OCc3ccccc3)[C@H]2O)cc1`, for which the EC50 was determined as 8.4 µM.

With `O=[P@@]1(c2cccc(C(F)(F)F)c2)O[C@H](COCc2ccccc2)[C@@H](OCc2ccccc2)[C@H](OCc2ccccc2)[C@H]1O`, the EC50 was greater than 25 µM.

`O=[P@]1(c2cccc(F)c2)O[C@H](COCc2ccccc2)[C@@H](OCc2ccccc2)[C@H](OCc2ccccc2)[C@H]1O` showed an EC50 greater than 25 µM.

As to `N[C@@H]1[C@@H](OCc2ccccc2)[C@H](OCc2ccccc2)[C@@H](COCc2ccccc2)O[P@@]1(=O)c1ccccc1`, it took 16.3 µM to reach a half-maximal effect (EC50).

For `O=[P@@]1(c2cccc(F)c2)O[C@H](COCc2ccccc2)[C@@H](OCc2ccccc2)[C@H](OCc2ccccc2)[C@@H]1O`, the EC50 was greater than 25 µM.

On to `COc1ccc([P@@]2(=O)O[C@H](COCc3ccccc3)[C@@H](OCc3ccccc3)[C@H](OCc3ccccc3)[C@H]2O)cc1`, for which the EC50 came to 15 µM.

The compound `CSC(=S)O[C@H]1[C@@H](OCc2ccccc2)[C@H](OCc2ccccc2)[C@@H](COCc2ccccc2)O[P@@]1(=O)c1ccccc1` gave an EC50 greater than 25 µM.

`Cc1ccc([P@@]2(=O)O[C@H](COCc3ccccc3)[C@@H](OCc3ccccc3)[C@H](OCc3ccccc3)[C@@H]2O)cc1`: the EC50 is greater than 25 µM.

As for `CC(=O)O[C@@H]1[C@@H](OCc2ccccc2)[C@H](OCc2ccccc2)[C@@H](COCc2ccccc2)O[P@@]1(=O)c1ccccc1`, the EC50 was found to be 11.9 µM.

Tested on in another data set: not listed separately
Description: Cytotoxicity against mouse astrocytes assessed as decrease in cell viability at 1 to 100 uM after 48 hrs by neutral red incorporation assay. The data set is classed as cell-based. As to conditions: astrocyte.
Take `O=NN(CCCl)C(=O)NCCCl` [CARMUSTINE]: the Activity entry was “Non-toxic”.

Tested on in a further data set: not listed separately
Description: Cytotoxicity against mouse astrocytes assessed as decrease in cell viability at 1 to 100 uM after 48 hrs by propidium iodide incorporation assay. The data set is classed as cell-based. As to conditions: astrocyte.
Take `O=NN(CCCl)C(=O)NCCCl` [CARMUSTINE]: the Activity result is reported as “Non-toxic”.

(Values after ChEMBL document CHEMBL2029220, “Oxaphosphinanes: new therapeutic perspectives for glioblastoma” (J Med Chem, 2012).)
